Test results from patent publication US10759796B2, “CXCR4 inhibitors and uses thereof” (X4 Pharmaceuticals, Inc., priority 2016, dated 2020).
Where two headings read alike, the source gives them in different places.

Tests used:
[1] = Fraction of drug unbound to plasma proteins, mouse; assay type: in vitro ADME; details: read-out: Fu (p) %
[2] = molecular target: Jurkat cells expressing CXCR4 (Homo sapiens (Human), UniProt P61073); experiment: Chemokine (CXCL12-AF647) binding inhibition assay; details: CXCL12-AF647 25 ng/mL, read-out: IC50 CXCL-12 binding Jurkat
Sequence of Jurkat cells expressing CXCR4 (P61073 whole entry): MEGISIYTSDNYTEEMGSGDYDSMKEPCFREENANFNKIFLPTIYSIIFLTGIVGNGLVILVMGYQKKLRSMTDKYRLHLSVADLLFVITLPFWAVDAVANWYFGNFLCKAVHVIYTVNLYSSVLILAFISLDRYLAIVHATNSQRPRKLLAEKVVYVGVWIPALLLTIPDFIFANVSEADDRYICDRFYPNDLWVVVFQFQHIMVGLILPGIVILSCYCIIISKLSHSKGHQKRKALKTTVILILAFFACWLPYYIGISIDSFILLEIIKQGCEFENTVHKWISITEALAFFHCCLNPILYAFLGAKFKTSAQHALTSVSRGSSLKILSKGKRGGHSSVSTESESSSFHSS
Summary of the method: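 Cells in HBSS, 20 mM HEPES, 0.2% BSA, pH 7.4, preincubated 15 min at room temperature with compound, then 25 ng/mL CXCL12-AF647 for 30 min. After washing and paraformaldehyde fixation, bound ligand read by flow cytometry; percent inhibition calculated from MFI relative to unlabeled and ligand-only controls.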

[3] = Fraction of drug unbound to plasma proteins, rat; assay type: in vitro ADME; details: read-out: Fu (p)
[4] = Fraction of drug unbound to brain proteins, rat; assay type: in vitro ADME; details: read-out: Fu (b)
[5] = Mouse brain uptake assay, 0-24 h, 4 time points; assay type: in vivo; details: male, 3 mg/kg IV, 4 time points; for Kp / Kp uu: CD1, brain and plasma; for Kp / clearance / half-life / Kp uu: Mouse; for clearance / half-life: CD1, plasma; for half-life: read-out: t½ (converted)
Experimental: The study design (9 animals) consisted of administrating the drug (IV: 3 mg/kg (5 mL/kg) via tail vein injection) and collecting samples at terminal bleeding for plasma and brain at 0.083, 0.5 and 1 h. The blood collection was performed as follows: the animal was restrained manually and approximately 150 μL blood/time point was collected into a dipotassium EDTA tube via retro orbital puncture under anesthesia with isoflurane. The blood sample was put on ice and centrifuged to obtain a plasma sample (2000 g, 5 min under 4° C.) within 15 minutes. The brain collection was performed as follows: a mid-line incision was made in the animal's scalp and the skin was retracted. Using small bone cutters and rongeurs, the skull overlying the brain was removed. The brain was removed using a spatula and the brain rinsed with cold saline. The brain was placed in screw-top tubes, and the tubes were stored at −70° C. until analysis. The IV dosing solution was prepared in 50 mM citrate buffer (pH 4.0) at 0.6 mg/mL.
An aliquot of 30 μL sample was added to 150 μL MeCN containing 50 ng/mL IS (Dexamethasone). The mixture was vortexed for 5 min and centrifuged at 14,000 rpm for 5 min. An aliquot of 5 μL supernatant was injected for LC-MS/MS analysis.
An aliquot of 30 μL brain homogenate (brain:PBS=1:3, w/v) sample was added to 150 μL IS in ACN (Dexamethasone, 50 ng/mL). The mixture was vortexed for 5 min and centrifuged at 14,000 rpm for 5 min. An aliquot of 5 μL supernatant was injected for LC-MS/MS analysis.
The sample analysis was performed on LCMS/MS-003 (API4000, triple quadruple) under the following conditions: positive ion, ESI, MRM detection using dexamethasone as internal standard. HPLC conditions: mobile phase A: H2O (0.025% formic acid (FA) with 1 mM NH4OAc); mobile phase B: MeOH (0.025% FA with 1 mM NH4OAc) on Waters X-Bridge C18 (2.1×50 mm, 2.5 μm) column at 60° C.
A similar experiment was performed with 4 time points taken from 0-24 h.

[6] = Mouse plasma proteins (Table 9)
[7] = CD1, Mouse brain, read-out: AUClast (b)
[8] = CD1, Mouse plasma, read-out: AUClast (p)

Compound	fraction unbound [1, 6]	IC50 [2]	fraction unbound [3]	fraction unbound [4]	fraction unbound ([1]; Mouse plasma proteins (Table 12))	AUC(0-t) [5, 7]	AUC(0-t) [5, 8]	Kp [5]	clearance [5]	half-life [5]	Kp uu [5]
Cc1cccnc1[C@@H]1CCC[C@H](c2nc3cccc(N4CCN(C(C)C)CC4)n3c2Br)N1C [Compound I-20]	0.021	0.01 to 100 nM	–	–	–	–	–	–	–	–	–
CN1CCN(c2cccc3nc([C@H]4CCC[C@@H](c5ncccc5Cl)N4)cn23)CC1 (racemic) [Compound I-149]	0.099	0.01 to 100 nM	0.2	0.038	–	–	–	–	–	–	–
CN1CCN(c2cccc3nc([C@@H]4CCC[C@H](c5ncccc5Cl)N4)cn23)CC1 (single isomer, unassigned) [Compound I-189]	–	0.01 to 100 nM	0.248	0.061	–	–	–	–	–	–	–
CN1CCN(c2cccc3nc([C@H]4CCC[C@@H](c5ncccc5Cl)N4)cn23)CC1 (single isomer, unassigned) [Compound I-188]	–	0.01 to 100 nM	0.308	0.057	0.143	–	–	–	–	–	–
Cc1cccnc1[C@@H]1CCC[C@H](c2cn3c(-c4cccnc4)cccc3n2)N1C [Compound I-6]	–	100 to 1000 nM	–	–	–	3170 ng·h/mL	1040 ng·h/mL	3.05	48.3 mL/min/kg	3.6 h	–
Cc1cccnc1[C@@H]1CCC[C@H](c2nc3cccc(N4CCN(C)CC4)n3c2Cl)N1C [Compound I-18]	0.054	0.01 to 100 nM	–	–	–	–	–	–	–	–	–
CCN1CCN(c2cccc3nc([C@H]4CCC[C@@H](c5ncccc5C)N4C)c(Br)n23)CC1 [Compound I-19]	0.028	0.01 to 100 nM	–	–	–	–	–	–	–	–	–
Cc1cccnc1[C@@H]1CCC[C@H](c2cn3c(N4CCN(C)CC4)cccc3n2)N1 [Compound I-187]	0.249	0.01 to 100 nM	–	–	–	1360 ng·h/mL	1720 ng·h/mL	0.79	28.7 mL/min/kg	4.72 h	0.22
Cc1cccnc1[C@@H]1CCC[C@H](c2nc3cccc(N4CCC(N(C)C)CC4)n3c2Cl)N1C [Compound I-114]	0.028	0.01 to 100 nM	–	–	–	–	–	–	–	–	–
Cc1cccnc1[C@@H]1CCC[C@H](c2nc3cccc(N4CCN(C)CC4)n3c2Cl)N1 [Compound I-146]	0.053	0.01 to 100 nM	0.07	0.007	–	34800 ng·h/mL	6590 ng·h/mL	5.29	7.22 mL/min/kg	6.02 h	0.6
